# Test results reported in patent US7247627B2, “Salts and polymorphs of a pyrrole-substituted indolinone compound” (Pharmacia & Upjohn Company, priority 2003, dated 2007).
# Structures can show the parent of a compound that is named as a salt.
# Columns and labels:
# hepatic cytochrome P450 = experiment: Metabolism in preclinical species and in human hepatocytes and microsomes; format: in vitro ADME; conditions: preclinical species (in vivo and in vitro)
# Method: The primary site of metabolism is the morpholinyl group. Three metabolites have been identified in vivo following single oral administration (100 mg/kg) to cynomolgus monkeys (FIG. 8). These 3 metabolites, which were detected at <16% relative abundance to parent in monkey plasma, were also the major products observed in human microsomes and hepatocytes. Relative abundance was determined from monkey plasma following a single dose of 5-[(Z)-(5-fluoro-2-oxo-1,2-dihydro-3H-indol-3-ylidene)methyl]-N-[(2S)-2-hydroxy-3-morpholin-4-ylpropyl]-2,4-dimethyl-1H-pyrrole-3-carboxamide (100 mg/kg) and based on (AUC0-12 metabolite/AUC0-12 parent)×100, estimated from the characteristic indole UV absorption at 440 nm. The N,O-dealkylation metabolite has been confirmed via nuclear magnetic resonance (NMR). […] The morpholinyl lactam metabolite is the product of oxygenation-dehydrogenation and has also been confirmed via NMR. The morpholinyl hemi-aminal metabolite is an unstable metabolite identified via an iminium-ion trapping experiment. Relative abundance was determined by UV response at 428 nm.
# [1] = Solid-state properties of the free base form; format: physicochemical
# [2] = system: solid and hematopoietic cancer xenograft models; conditions: diverse preclinical solid and hematopoietic cancer xenograft models; cited from earlier work
# [3] = Crystal form stability by PXRD (Example 3); format: physicochemical; conditions: 40° C. and 75% relative humidity
# Method: Crystal form stability was assessed for samples of 5-[(Z)-(5-fluoro-2-oxo-1,2-dihydro-3H-indol-3-ylidene)methyl]-N-[(2S)-2-hydroxy-3-morpholin-4-ylpropyl]-2,4-dimethyl-1 H-pyrrole-3-carboxamide maleate salt, polymorph Form 1, polymorph Form 2, and a mixture of polymorph Form 1 and Form 2. In each case, a sample of the substance was placed into a controlled temperature and humidity stability chamber at 40° C. and 75% relative humidity. Samples were taken several times during the duration of the test and analyzed for qualitative changes in the PXRD patterns.
# [4] = Six-week stability study, HPLC chemical and enantiomeric stability, PXRD (Example 4); format: physicochemical; conditions: for Total Impurity (%): closed vial
# Method: A six-week stability study was carried out on samples of 5-[(Z)-(5-fluoro-2-oxo-1,2-dihydro-3H-indol-3-ylidene)methyl]-N-[(2S)-2-hydroxy-3-morpholin-4-ylpropyl]-2,4-dimethyl-1H-pyrrole-3-carboxamide maleate salt, polymorph Form 1. The compound was exposed for 6 weeks, closed vial, at three stability test conditions: 5° C., 25° C./60% relative humidity and 40° C./75% relative humidity, and analyzed for chemical and enantiomeric stability as described in Example 2, except that the HPLC instrument was an Agilent 1100 series.
# The percent recovery was calculated based on the average response factor obtained from a reference standard throughout the HPLC run, and considering the E isomer as the compound and not as an impurity. […] The isomerization is often an artifact of sample preparation and analysis. […] The values shown in the table are averages of several injections.
# [5] = TGA of six-week stability samples; format: physicochemical
# Method: TGA measurements were performed using a TA Instruments model 2950 Hi-Res analyzer with a Thermal Analyst 5000 controller. Samples were placed onto a tared platinum hanging pan and heated to at least 165° C. at a rate of 10° C./min. Dry nitrogen was used as a purge gas.
# To determine the thermal stability and residual solvent content, the same samples were analyzed by DSC and TGA.
# [6] = Hygroscopicity by dynamic moisture sorption gravimetry (DMSG); format: physicochemical; conditions: for Water Uptake at 80% RH (wt. %) / hysteresis of sorption profile / hygroscopicity: DMSG; for Water Uptake at 80% RH (wt. %): 25° C.
# Method: In one embodiment, the invention provides a non-hygroscopic salt of 5-[(Z)-(5-fluoro-2-oxo-1,2-dihydro-3H-indol-3-ylidene)methyl]-N-[(2S)-2-hydroxy-3-morpholin-4-ylpropyl]-2,4-dimethyl-1H-pyrrole-3-carboxamide. Hygroscopicity is determined by dynamic moisture sorption gravimetry (DMSG) using a controlled atmosphere microbalance at a temperature of 25° C. Samples are analyzed over a relative humidity range of from 0 to 90% in 3% steps. Each step is brought to equilibrium before moving to the next step, with equilibrium assessed as a weight change of less than 0.002 mg (0.02%) for five consecutive points at 1 point per 120 seconds.
# Several salts of 5-[(Z)-(5-fluoro-2-oxo-1,2-dihydro-3H-indol-3-ylidene)methyl]-N-[(2S)-2-hydroxy-3-morpholin-4-ylpropyl]-2,4-dimethyl-1H-pyrrole-3-carboxamide were produced and analyzed for hygroscopicity. Hygroscopicity was determined by dynamic moisture sorption gravimetry (DMSG) using a controlled atmosphere microbalance at a temperature of 25° C. Samples were analyzed over a relative humidity range of from 0 to 90% in 3% steps, in a humidity profile of […], where the initial value of 36% reflects the approximate initial equilibrated relative humidity (not specifically measured). Each step was brought to equilibrium before moving to the next step, with equilibrium assessed as a weight change of less than 0.001 mg (0.01%) or 0.002 mg (0.02%) for five consecutive points at 1 point per 120 seconds. The water uptake at 80% relative humidity (RH) was selected for comparison between the salts. The 80% RH values for each salt are shown in Table 5, and the right column of the table identifies the corresponding Figure showing the complete DMSG scan. A range of values given for the water uptake at 80% reflects hysteresis in the 0→90% and 90→0% scans.
# [7] = 6-week sample stored at 25° C./60% RH
# [8] = 6-week sample stored at 40° C./75% RH
smiles,measurement,setting,value
"Cc1[nH]c(/C=C2\C(=O)Nc3ccc(F)cc32)c(C)c1C(=O)NC[C@H](O)CN1CCOCC1 [5-[(Z)-(5-fluoro-2-oxo-1,2-dihydro-3H-indol-3-ylidene)methyl]-N-[(2S)-2-hydroxy-3-morpholin-4-ylpropyl]-2,4-dimethyl-1H-pyrrole-3-carboxamide]",metabolism pathway,hepatic cytochrome P450,proceeds primarily through an oxidative pathway mediated by hepatic cytochrome P450
same,chemical and enantiomeric stability,[1],chemically and enantiomerically stable
same,hygroscopicity,[1],relatively non-hygroscopic
same,anti-tumor activity,[2],has anti-tumor activity
"Cc1[nH]c(/C=C2\C(=O)Nc3ccc(F)cc32)c(C)c1C(=O)NC[C@H](O)CN1CCOCC1 [Form 1, 5-[(Z)-(5-fluoro-2-oxo-1,2-dihydro-3H-indol-3-ylidene)methyl]-N-[(2S)-2-hydroxy-3-morpholin-4-ylpropyl]-2,4-dimethyl-1H-pyrrole-3-carboxamide]",crystal form changes in the PXRD pattern,[3]; 163 days,no crystal form changes were observed
same,crystalline changes by PXRD compared to a control sample,[4]; 6-week samples maintained at 40° C./75% RH,no crystalline changes
same,chiral transformation,"[4]; 6-week stability samples, any samples",no chiral transformation observed
same,Total Impurity (%),"[4]; 6 weeks, 5° C. ± 3° C.",1.67%
same,Total Impurity (%),"[4]; 6 weeks, 25° C. ± 2° C., 60% RH",1.85%
same,Total Impurity (%),"[4]; 6 weeks, 40° C. ± 2° C.C, 76% RH",1.86%
same,assay of the 6-week stability samples,[4]; all three stability conditions,97.1–98.5%
same,"Enantiomeric stability, amount of R isomer",[4]; samples held at 80° C. for 2 weeks,no increase in the amount of R isomer observed
same,stability,"[4]; under all stability conditions investigated, 6 weeks",stable
same,"TGA Wt. Loss (%), 25° C.–125° C.",[5]; 6-week sample stored at 5° C.,1.44%
same,"TGA Wt. Loss (%), 25° C.–275° C.",[5]; 6-week sample stored at 5° C.,23.15%
same,"TGA Wt. Loss (%), 25° C.–125° C.",[5]; [7],1.36%
same,"TGA Wt. Loss (%), 25° C.–275° C.",[5]; [7],24.36%
same,"TGA Wt. Loss (%), 25° C.–125° C.",[5]; [8],1.66%
same,"TGA Wt. Loss (%), 25° C.–275° C.",[5]; [8],20.61%
same,TGA significant weight loss at 207° C.,[5]; 6-week samples,21-23%
same,TGA weight loss between 25–125° C.,[5]; 6-week samples,less than 2%
"Cc1[nH]c(/C=C2\C(=O)Nc3ccc(F)cc32)c(C)c1C(=O)NC[C@H](O)CN1CCOCC1 [Form 2, 5-[(Z)-(5-fluoro-2-oxo-1,2-dihydro-3H-indol-3-ylidene)methyl]-N-[(2S)-2-hydroxy-3-morpholin-4-ylpropyl]-2,4-dimethyl-1H-pyrrole-3-carboxamide]",Water Uptake at 80% RH (wt. %),"[6]; 80% relative humidity, listed as Maleate",0.8 wt. %
same,crystal form changes in the PXRD pattern,[3]; 134 days,no crystal form changes were observed
"Cc1[nH]c(/C=C2\C(=O)Nc3ccc(F)cc32)c(C)c1C(=O)NC[C@H](O)CN1CCOCC1 [HCl, form 1, 5-[(Z)-(5-fluoro-2-oxo-1,2-dihydro-3H-indol-3-ylidene)methyl]-N-[(2S)-2-hydroxy-3-morpholin-4-ylpropyl]-2,4-dimethyl-1H-pyrrole-3-carboxamide]",Water Uptake at 80% RH (wt. %),[6]; 80% relative humidity,3–20 wt. %
same,hysteresis of sorption profile,[6]; listed as hydrochloride salt,significant hysteresis
"Cc1[nH]c(/C=C2\C(=O)Nc3ccc(F)cc32)c(C)c1C(=O)NC[C@H](O)CN1CCOCC1 [HCl, form 2, 5-[(Z)-(5-fluoro-2-oxo-1,2-dihydro-3H-indol-3-ylidene)methyl]-N-[(2S)-2-hydroxy-3-morpholin-4-ylpropyl]-2,4-dimethyl-1H-pyrrole-3-carboxamide]",hygroscopicity,[6],relatively non-hygroscopic
same,hysteresis of sorption profile,[6],no significant hysteresis
same,Water Uptake at 80% RH (wt. %),[6]; 80% relative humidity,1.2 wt. %
"Cc1[nH]c(/C=C2\C(=O)Nc3ccc(F)cc32)c(C)c1C(=O)NC[C@H](O)CN1CCOCC1 [L-malate, 5-[(Z)-(5-fluoro-2-oxo-1,2-dihydro-3H-indol-3-ylidene)methyl]-N-[(2S)-2-hydroxy-3-morpholin-4-ylpropyl]-2,4-dimethyl-1H-pyrrole-3-carboxamide]",Water Uptake at 80% RH (wt. %),[6]; 80% relative humidity,12–13 wt. %
"Cc1[nH]c(/C=C2\C(=O)Nc3ccc(F)cc32)c(C)c1C(=O)NC[C@H](O)CN1CCOCC1 [L-tartrate, 5-[(Z)-(5-fluoro-2-oxo-1,2-dihydro-3H-indol-3-ylidene)methyl]-N-[(2S)-2-hydroxy-3-morpholin-4-ylpropyl]-2,4-dimethyl-1H-pyrrole-3-carboxamide]",Water Uptake at 80% RH (wt. %),[6]; 80% relative humidity,9 wt. %
"Cc1[nH]c(/C=C2\C(=O)Nc3ccc(F)cc32)c(C)c1C(=O)NC[C@H](O)CN1CCOCC1 [Malonate, 5-[(Z)-(5-fluoro-2-oxo-1,2-dihydro-3H-indol-3-ylidene)methyl]-N-[(2S)-2-hydroxy-3-morpholin-4-ylpropyl]-2,4-dimethyl-1H-pyrrole-3-carboxamide]",Water Uptake at 80% RH (wt. %),[6]; 80% relative humidity,12 wt. %
"Cc1[nH]c(/C=C2\C(=O)Nc3ccc(F)cc32)c(C)c1C(=O)NC[C@H](O)CN1CCOCC1 [Mandalate, 5-[(Z)-(5-fluoro-2-oxo-1,2-dihydro-3H-indol-3-ylidene)methyl]-N-[(2S)-2-hydroxy-3-morpholin-4-ylpropyl]-2,4-dimethyl-1H-pyrrole-3-carboxamide]",Water Uptake at 80% RH (wt. %),[6]; 80% relative humidity,5–6 wt. %
"Cc1[nH]c(/C=C2\C(=O)Nc3ccc(F)cc32)c(C)c1C(=O)NC[C@H](O)CN1CCOCC1 [Tosylate, 5-[(Z)-(5-fluoro-2-oxo-1,2-dihydro-3H-indol-3-ylidene)methyl]-N-[(2S)-2-hydroxy-3-morpholin-4-ylpropyl]-2,4-dimethyl-1H-pyrrole-3-carboxamide]",Water Uptake at 80% RH (wt. %),[6]; 80% relative humidity,7 wt. %
same,Uptake of water,[6]; at about 65% relative humidity,about 2.5%
"Cc1[nH]c(/C=C2\C(=O)Nc3ccc(F)cc32)c(C)c1C(=O)NC[C@H](O)CN1CCOCC1 [initial maleate salt, 5-[(Z)-(5-fluoro-2-oxo-1,2-dihydro-3H-indol-3-ylidene)methyl]-N-[(2S)-2-hydroxy-3-morpholin-4-ylpropyl]-2,4-dimethyl-1H-pyrrole-3-carboxamide]",moisture uptake,[6]; 80% relative humidity,about 9%
same,hygroscopicity,[6],hygroscopic
"Cc1[nH]c(/C=C2\C(=O)Nc3ccc(F)cc32)c(C)c1C(=O)NC[C@H](O)CN1CCOCC1 [mixed Form 1/Form 2, 5-[(Z)-(5-fluoro-2-oxo-1,2-dihydro-3H-indol-3-ylidene)methyl]-N-[(2S)-2-hydroxy-3-morpholin-4-ylpropyl]-2,4-dimethyl-1H-pyrrole-3-carboxamide]",crystal form changes in the PXRD pattern,[3]; 6 weeks,no crystal form changes were observed
